Reference: ChEMBL document CHEMBL5241060, “Glycorandomization: A promising diversification strategy for the drug development” (Eur J Med Chem, 2021)
≈ marks a conversion by molar mass, not a printed value.

Columns and labels:
MDA-MB-231 = experiment: Inhibition of cell migration in human MDA-MB-231 cells; type: functional, cell-based
Escherichia coli [1] = experiment: Antibacterial activity against tetracycline resistant Escherichia coli; type: functional
Escherichia coli [2] = experiment: Antibacterial activity against tetracycline resistant Escherichia coli 1-849; type: functional

| SMILES | MIC (Escherichia coli [1]) [µM] | further results |
| --- | --- | --- |
| CCCCCCCCCCCCCC(=O)NCCNC(=O)C(C)(C)C(=O)NCCO[C@@H]1O[C@H](COC(C)=O)[C@@H](O[C@@H]2O[C@H](COC(C)=O)[C@H](OC(C)=O)[C@H](OC(C)=O)[C@H]2OC(C)=O)[C@H](OC(C)=O)[C@H]1OC(C)=O | – | IC50 (MDA-MB-231): > 50 µM |
| C[C@H]1O[C@@H](O[C@@H]2[C@@H](O)[C@H](N)C[C@H](N)[C@H]2O[C@H]2O[C@H](CN)[C@@H](O)[C@H](O)[C@H]2N)[C@H](O)[C@@H](O)[C@@H]1N | 9 (≈ 4.21 µg/mL) | – |
| CON(CC(=O)Nc1ccc2c(c1O)C(=O)C1=C(O)[C@]3(O)C(=O)C(C(N)=O)=C(O)[C@@H](N(C)C)[C@@H]3[C@@H](O)[C@@H]1[C@H]2C)[C@H]1O[C@H](CO)[C@@H](O)[C@H](O)[C@H]1N | – | MIC (Escherichia coli [2]): 4 µg/mL (≈ 5.65 µM) |
| C[C@H]1O[C@@H](O[C@@H]2[C@@H](O)[C@H](N)C[C@H](N)[C@H]2O[C@H]2O[C@H](CN)[C@@H](O)[C@H](O)[C@H]2N)[C@H](O)[C@@H](O)[C@H]1N | 9 (≈ 4.21 µg/mL) | – |
| NC[C@@H]1O[C@H](O[C@H]2[C@@H](O)[C@H](O[C@@H]3[C@@H](O)[C@H](N)C[C@H](N)[C@H]3O[C@H]3O[C@H](CN)[C@@H](O)[C@H](O)[C@H]3N)O[C@@H]2CO)[C@H](N)[C@@H](O)[C@@H]1O [FRAMYCETIN] | 2 (≈ 1.23 µg/mL) | – |
